Laboratory results taken from PubChem BioAssay AID330 (DTP/NCI, 2004).
“And” between values parts separate entries of the source, which are not always exact repeats. Identical values can stand only once. Inconclusive results and toxic doses are left out.

Test system: P388 leukemia ip, CD2F1 mice, survival T/C
Test: NCI In Vivo Anticancer Drug Screen. Data for tumor model P388 Leukemia (intraperitoneal) in CD2F1 (CDF1) mice
Conditions: endpoint: median survival time, higher = longer survival
Method in brief: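 Mice carrying the transplanted tumor received test compound or vehicle. Survival was recorded in each group, and the value is the treated-group measurement divided by that of the vehicle-treated control group.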

[1] = dose: 50.0 mg/kg/injection, schedule: Q01DX009 (ip), vehicle: saline
[2] = dose: 100.0 mg/kg/injection, schedule: Q01DX009 (ip), vehicle: saline
[3] = dose: 200.0 mg/kg/injection, schedule: Q01DX009 (ip), vehicle: saline
[4] = dose: 50.0 mg/kg/injection, schedule: Q01DX005 (ip), vehicle: Klucel (hydroxypropylcellulose) (HPC)
[5] = dose: 100.0 mg/kg/injection, schedule: Q01DX005 (ip), vehicle: Klucel (hydroxypropylcellulose) (HPC)
[6] = dose: 200.0 mg/kg/injection, schedule: Q01DX005 (ip), vehicle: Klucel (hydroxypropylcellulose) (HPC)
[7] = dose: 60.0 mg/kg/injection, schedule: Q01DX005 (ip), vehicle: Klucel (hydroxypropylcellulose) (HPC)
[8] = dose: 240.0 mg/kg/injection, schedule: Q01DX005 (ip), vehicle: Klucel (hydroxypropylcellulose) (HPC)
[9] = dose: 120.0 mg/kg/injection, schedule: Q01DX005 (ip), vehicle: Klucel (hydroxypropylcellulose) (HPC)
[10] = dose: 100.0 mg/kg/injection, schedule: Q01DX009 (ip), vehicle: saline sonified
[11] = dose: 200.0 mg/kg/injection, schedule: Q01DX009 (ip), vehicle: saline sonified
[12] = dose: 400.0 mg/kg/injection, schedule: Q01DX009 (ip), vehicle: saline sonified

NC(=S)N/N=C\c1ncnc2ccccc12
T/C (dose: 1.0 mg/kg/injection, schedule: Q01DX009 (ip), vehicle: saline with Tween-80): 104 % of control | T/C (dose: 2.0 mg/kg/injection, schedule: Q01DX009 (ip), vehicle: saline with Tween-80): 118 % of control | T/C (dose: 4.0 mg/kg/injection, schedule: Q01DX009 (ip), vehicle: saline with Tween-80): 100 % of control | T/C (dose: 12.0 mg/kg/injection, schedule: Q01DX009 (ip), vehicle: saline with Tween-80): 154 % of control | T/C (dose: 12.5 mg/kg/injection, schedule: Q01DX009 (ip), vehicle: saline with Tween-80): 150 % of control | T/C (dose: 12.5 mg/kg/injection, schedule: Q04DX003 (ip), vehicle: saline with Tween-80): 112 % of control | T/C (dose: 18.0 mg/kg/injection, schedule: Q01DX009 (ip), vehicle: saline with Tween-80): 172 % of control | T/C (dose: 25.0 mg/kg/injection, schedule: Q04DX003 (ip), vehicle: saline with Tween-80): 116 % of control | T/C (dose: 50.0 mg/kg/injection, schedule: Q04DX003 (ip), vehicle: saline with Tween-80): 120 % of control

C[C@H]1/C(=C/C(=O)OCCN(C)C)CC[C@H]2[C@H]1C(=O)C[C@H]1C(C)(C)[C@@H](O)CC[C@]21C
T/C (dose: 3.12 mg/kg/injection, schedule: Q01DX009 (ip), vehicle: saline): 101 % of control | T/C (dose: 6.25 mg/kg/injection, schedule: Q01DX009 (ip), vehicle: saline): 96 % of control | T/C (dose: 12.5 mg/kg/injection, schedule: Q01DX009 (ip), vehicle: saline): 100 % of control | T/C (dose: 25.0 mg/kg/injection, schedule: Q01DX009 (ip), vehicle: saline): 100 % of control

COc1cc2c(/C=N/NS(=O)(=O)c3ccc(C)cc3)c(Cl)[nH]c2cc1C
T/C (dose: 12.5 mg/kg/injection, schedule: Q01DX009 (ip), vehicle: Klucel (hydroxypropylcellulose) (HPC)): 103 % of control | T/C (dose: 25.0 mg/kg/injection, schedule: Q01DX009 (ip), vehicle: Klucel (hydroxypropylcellulose) (HPC)): 95 % of control | T/C (dose: 50.0 mg/kg/injection, schedule: Q01DX009 (ip), vehicle: Klucel (hydroxypropylcellulose) (HPC)): 92 % of control | T/C (dose: 100.0 mg/kg/injection, schedule: Q01DX001 (ip), vehicle: Klucel (hydroxypropylcellulose) (HPC)): 100 % of control | T/C (dose: 200.0 mg/kg/injection, schedule: Q01DX001 (ip), vehicle: Klucel (hydroxypropylcellulose) (HPC)): 120 % of control | T/C (dose: 400.0 mg/kg/injection, schedule: Q01DX001 (ip), vehicle: Klucel (hydroxypropylcellulose) (HPC)): 100 % of control

CC(C)c1ccc(O)c(O)c1
T/C (dose: 25.0 mg/kg/injection, schedule: Q01DX009 (ip), vehicle: saline with Tween-80): 113 % of control | T/C (dose: 50.0 mg/kg/injection, schedule: Q01DX009 (ip), vehicle: saline with Tween-80): 113 % of control | T/C (dose: 100.0 mg/kg/injection, schedule: Q01DX009 (ip), vehicle: saline with Tween-80): 111 % of control

O=C(CCc1ccccc1)c1c(O)c(Cc2ccccc2O)c2c(c1O)Cc1ccccc1O2
T/C (dose: 1.5 mg/kg/injection, schedule: Q01DX009 (ip), vehicle: Klucel (hydroxypropylcellulose) (HPC)): 100 % of control | T/C (dose: 3.0 mg/kg/injection, schedule: Q01DX009 (ip), vehicle: Klucel (hydroxypropylcellulose) (HPC)): 98 % of control | T/C (dose: 6.0 mg/kg/injection, schedule: Q01DX009 (ip), vehicle: Klucel (hydroxypropylcellulose) (HPC)): 98 % of control | T/C (dose: 12.0 mg/kg/injection, schedule: Q01DX009 (ip), vehicle: Klucel (hydroxypropylcellulose) (HPC)): 98 % of control

CN1CNC(=S)NC1
T/C [1]: 105 % of control | T/C [2]: 102 % of control | T/C [3]: 101 % of control

CN(C)CC#CC1(O)c2ccccc2CCc2ccccc21
T/C [1]: 91 % of control | T/C [2]: 91 % of control | T/C [3]: 91 % of control

Cc1ccc(S(=O)(=O)NC(=O)Nc2ccccc2SC2CCc3ccccc32)cc1 (centres undefined)
T/C [4]: 105 % of control | T/C [5]: 108 % of control | T/C [6]: 102 % of control

CCC(C)/C(=C\C#N)NCCCCCCN/C(=C/C#N)C(C)CC (centres undefined)
T/C (dose: 15.0 mg/kg/injection, schedule: Q01DX005 (ip), vehicle: Klucel (hydroxypropylcellulose) (HPC)): 95 % of control | T/C (dose: 30.0 mg/kg/injection, schedule: Q01DX005 (ip), vehicle: Klucel (hydroxypropylcellulose) (HPC)): 86 % of control | T/C [7]: 90 % of control | T/C [8]: 91 % of control

CC(NC(=O)OCc1ccccc1)C(=O)NC(Cc1c[nH]c2ccccc12)C(=O)O (centres undefined)
T/C [4]: 99 % of control | T/C [5]: 97 % of control | T/C [6]: 95 % of control

O=C(NC1C=Nc2ccccc2NC1=O)c1ccc(Cl)cc1 (centres undefined)
T/C [7]: 91 % of control | T/C [9]: 98 % of control | T/C [8]: 91 % of control

COP(=O)(O)OC.[U]
T/C (dose: 3.12 mg/kg/injection, schedule: Q01DX009 (ip), vehicle: saline with Tween-80): 118 % of control | T/C (dose: 6.25 mg/kg/injection, schedule: Q01DX009 (ip), vehicle: saline with Tween-80): 118 % of control

CC(=O)N1CCC(/C(C)=N/O)CC1
T/C (dose: 50.0 mg/kg/injection, schedule: Q01DX005 (ip), vehicle: saline): 107 % of control | T/C (dose: 100.0 mg/kg/injection, schedule: Q01DX005 (ip), vehicle: saline): 101 % of control | T/C (dose: 200.0 mg/kg/injection, schedule: Q01DX005 (ip), vehicle: saline): 106 % of control

Cc1ccc(S(=O)(=O)N/N=C/c2cc([N+](=O)[O-])cc(I)c2O)cc1
T/C (dose: 12.5 mg/kg/injection, schedule: Q01DX005 (ip), vehicle: distilled water + Tween-80): 102 % of control | T/C (dose: 25.0 mg/kg/injection, schedule: Q01DX005 (ip), vehicle: distilled water + Tween-80): 109 % of control | T/C (dose: 50.0 mg/kg/injection, schedule: Q01DX005 (ip), vehicle: distilled water + Tween-80): 98 % of control and 112 % of control | T/C (dose: 100.0 mg/kg/injection, schedule: Q01DX005 (ip), vehicle: distilled water + Tween-80): 98 % of control and 102 % of control | T/C (dose: 200.0 mg/kg/injection, schedule: Q01DX005 (ip), vehicle: distilled water + Tween-80): 122 % of control and 95 % of control | T/C (dose: 400.0 mg/kg/injection, schedule: Q01DX005 (ip), vehicle: distilled water + Tween-80): 93 % of control

Cc1ccc2nc3c(nc2c1)n(-c1ccccc1)c(=O)n3-c1cccc(Cl)c1
T/C (dose: 50.0 mg/kg/injection, schedule: Q01DX005 (ip), vehicle: saline with Tween-80): 90 % of control | T/C (dose: 100.0 mg/kg/injection, schedule: Q01DX005 (ip), vehicle: saline with Tween-80): 100 % of control | T/C (dose: 200.0 mg/kg/injection, schedule: Q01DX005 (ip), vehicle: saline with Tween-80): 101 % of control

COc1ccc(C2=NN(C(C)=O)C(c3cc(OC)c(OC)cc3N)S2)cc1OC (centres undefined) (tested in a mixture with another compound)
T/C (dose: 7.5 mg/kg/injection, schedule: Q01DX005 (ip), vehicle: saline with Tween-80): 97 % of control | T/C (dose: 15.0 mg/kg/injection, schedule: Q01DX005 (ip), vehicle: saline with Tween-80): 92 % of control | T/C (dose: 30.0 mg/kg/injection, schedule: Q01DX005 (ip), vehicle: saline with Tween-80): 90 % of control

O=C1c2c(O)ccc(N3CCOCC3)c2C(=O)c2c(N3CCOCC3)ccc(O)c21
T/C [7]: 103 % of control | T/C [9]: 98 % of control | T/C [8]: 100 % of control

C=CCC(C)(C#N)C1C=CCC1 (centres undefined)
T/C [10]: 100 % of control | T/C [11]: 100 % of control | T/C [12]: 122 % of control

CCC1(c2ccnc3ccccc23)C(=O)OC(C)(C)OC1=O
T/C (dose: 50.0 mg/kg/injection, schedule: Q01DX009 (ip), vehicle: distilled water + alcohol): 99 % of control | T/C (dose: 100.0 mg/kg/injection, schedule: Q01DX009 (ip), vehicle: distilled water + alcohol): 98 % of control | T/C (dose: 200.0 mg/kg/injection, schedule: Q01DX009 (ip), vehicle: distilled water + alcohol): 87 % of control

C1COC2(CCC3(CC2)OCCO3)O1
T/C (dose: 25.0 mg/kg/injection, schedule: Q04DX003 (ip), vehicle: Klucel (hydroxypropylcellulose) (HPC)): 100 % of control | T/C (dose: 50.0 mg/kg/injection, schedule: Q04DX003 (ip), vehicle: Klucel (hydroxypropylcellulose) (HPC)): 103 % of control | T/C [10]: 111 % of control | T/C (dose: 100.0 mg/kg/injection, schedule: Q04DX003 (ip), vehicle: Klucel (hydroxypropylcellulose) (HPC)): 101 % of control | T/C [11]: 100 % of control | T/C (dose: 200.0 mg/kg/injection, schedule: Q04DX003 (ip), vehicle: Klucel (hydroxypropylcellulose) (HPC)): 100 % of control | T/C [12]: 100 % of control | T/C (dose: 400.0 mg/kg/injection, schedule: Q04DX003 (ip), vehicle: Klucel (hydroxypropylcellulose) (HPC)): 99 % of control
